According to patent US20150064252A1, “SOLID DISPERSION FORMULATION OF AN ANTIVIRAL COMPOUND” (Gilead Pharmasset LLC, priority 2013, published 2015):

Columns and labels:
[1] = Pharmacokinetics of Compound I after single and multiple oral doses of solid dispersion tablets; format: in vivo, human; details: for half-life: t1/2
Description: The Compound I formulation is prepared as described above by combining Compound I amorphous free base in a 1:1 ratio by mass with copovidone, which is all dissolved in ethanol and spray dried to produce the Compound I solid dispersion. The Compound I solid dispersion is then mixed with various excipients in a dry granulation process to produce tablets that are film coated prior to packaging.
5 mg, 25 mg, 50 mg, and 100 mg tablet formulations were prepared according to Tables 1A and 1B).

[2] = Food effect on Compound I pharmacokinetics (fed vs fasted, light or high-fat breakfast); format: in vivo, human; details: for AUCinf % GLSM Ratio (Fed/Fasted) / AUClast % GLSM Ratio (Fed/Fasted) / Cmax % GLSM Ratio (Fed/Fasted) / Cmax / AUC(0-inf) / AUC(0-t): 100 mg; for Cmax / AUC(0-inf) / AUC(0-t): human, plasma, oral, N = 12; for AUC(0-inf): read-out: AUCinf GLSM; for AUC(0-t): read-out: AUClast GLSM
[3] = Spray dry feed solution and solid dispersion evaluation (solubility, stability); format: physicochemical
Description: The spray dry feed solution was prepared by solubilizing Compound I and polymer in the feed solvent. In certain cases, aggressive mixing or homogenization can be used to avoid clumping of the composition.
Different polymers were tested for preferred characteristics in the solid dispersions.
The feed solution was initially evaluated for appropriate solvent with regard to solubility, stability, and viscosity. […] Ethanol and methanol-based feed stocks were assessed for preparation ease and spray dried at a range of inlet and outlet temperatures to assess the robustness of the spray dry process. Both solvents gave rapid dissolution of Compound I and copovidone.

[4] = tested on: HCV infection of genotypes 1 to 6; details: cited from earlier work
[5] = high-fat/high-calorie breakfast vs fasted
[6] = 100 mg fasted, high-fat breakfast cohort (Cohort 6)
[7] = 100 mg fasted, light breakfast cohort (Cohort 5)

With COC[C@H]1C[C@@H](c2ncc(-c3ccc4c(c3)COc3cc5c(ccc6nc([C@@H]7CC[C@H](C)N7C(=O)[C@@H](NC(=O)OC)C(C)C)[nH]c65)cc3-4)[nH]2)N(C(=O)[C@H](NC(=O)OC)c2ccccc2)C1 [Compound I, Methyl {(2S)-1-[(2S,5S)-2-(9-{2-[(2S,4S)-1-{(2R)-2-[(methoxycarbonyl)amino]-2-phenylacetyl}-4-(methoxymethyl)pyrrolidin-2-yl]-1H-imidazol-5-yl}-1,11-dihydroisochromeno[4′,3′:6,7]naphtho[1,2-d]imidazol-2-yl)-5-methylpyrrolidin-1-yl]-3-methyl-1-oxobutan-2-yl}carbamate] the “dose proportionality of exposure (AUC and Cmax)” value ([1]; human, in vivo) was “nonlinear PK”, the AUC(0-inf) ([1]; human, in vivo, 5 mg) was 159 ng·h/mL and the AUC(0-t) ([1]; human, in vivo, 5 mg) was 134 ng·h/mL. For the same compound, the CL/F ([1]; human, in vivo, 5 mg) was 58,398.0 mL/h, the Cmax ([1]; human, in vivo, 5 mg) was 22.4 ng/mL and the Tmax ([1]; human, in vivo, 5 mg, Tmax) was 1.5 h. The half-life ([1]; human, in vivo, 5 mg) was 11.2 h, the AUC(0-inf) ([1]; human, in vivo, 50 mg) was 3020 ng·h/mL and the AUC(0-t) ([1]; human, in vivo, 50 mg) was 2970 ng·h/mL. The CL/F ([1]; human, in vivo, 50 mg) was 19,188.4 mL/h, the Cmax ([1]; human, in vivo, 50 mg) was 371 ng/mL and the Tmax ([1]; human, in vivo, 50 mg, Tmax) was 2.5 h. It also gave a half-life ([1]; human, in vivo, 50 mg) of 13.6 h, an AUC(0-inf) ([1]; human, in vivo, 100 mg) of 5060 ng·h/mL and an AUC(0-t) ([1]; human, in vivo, 100 mg) of 4990 ng·h/mL. For the same compound, the CL/F ([1]; human, in vivo, 100 mg) was 24,617.9 mL/h, the Cmax ([1]; human, in vivo, 100 mg) was 575 ng/mL and the Tmax ([1]; human, in vivo, 100 mg, Tmax) was 2.5 h. The half-life ([1]; human, in vivo, 100 mg) was 15.7 h, the AUC(0-inf) ([1]; human, in vivo, 150 mg) was 4980 ng·h/mL and the AUC(0-t) ([1]; human, in vivo, 150 mg) was 4930 ng·h/mL. For the same compound, the Cmax ([1]; human, in vivo, 150 mg) was 608 ng/mL, the Tmax ([1]; human, in vivo, 150 mg, Tmax) was 2.75 h and the half-life ([1]; human, in vivo, 150 mg) was 16.2 h. The AUC(0-inf) ([1]; human, in vivo, 450 mg) was 9580 ng·h/mL, the AUC(0-t) ([1]; human, in vivo, 450 mg) was 9500 ng·h/mL and the CL/F ([1]; human, in vivo, 450 mg) was 53,676.4 mL/h. The Cmax ([1]; human, in vivo, 450 mg) was 1120 ng/mL, the Tmax ([1]; human, in vivo, 450 mg, Tmax) was 3.25 h and the half-life ([1]; human, in vivo, 450 mg) was 15 h. For the same compound, the Tmax ([1]; human, in vivo, po, median Tmax (time of maximum plasma concentrations)) was 1.5 to 3.25 h, the “mean plasma concentrations at 24 hours postdose relative to protein-adjusted EC50 for genotype 1 to 6 HCV replicons” value ([1]; multiple once-daily doses greater than 5 mg) was “above the protein-adjusted concentration of a compound inhibiting virus replication by 50% (EC50)” and the “AUCinf % GLSM Ratio (Fed/Fasted)” value ([2]; high-fat breakfast) was 86.30%. The “AUClast % GLSM Ratio (Fed/Fasted)” value ([2]; high-fat breakfast) was 86.02%, the “Cmax % GLSM Ratio (Fed/Fasted)” value ([2]; high-fat breakfast) was 75.02% and the “AUCinf % GLSM Ratio (Fed/Fasted)” value ([2]; light breakfast) was 124.72%. For the same compound, the “AUClast % GLSM Ratio (Fed/Fasted)” value ([2]; light breakfast) was 124.84%, the “Cmax % GLSM Ratio (Fed/Fasted)” value ([2]; light breakfast) was 134.89% and the “effect of food on absorption and bioavailability” value ([2]; formulated as a solid dispersion) was “slowed the rate of absorption”. The “decrease in AUC with food” value [2, 5] was 14%, the “decrease in Cmax with food” value [2, 5] was 25% and the Cmax [2, 6] was 486 ng/mL. For the same compound, the AUC(0-inf) [2, 6] was 3790 ng·h/mL, the AUC(0-t) [2, 6] was 3750 ng·h/mL and the Cmax [2, 7] was 582 ng/mL. It also gave an AUC(0-inf) [2, 7] of 5470 ng·h/mL, an AUC(0-t) [2, 7] of 5390 ng·h/mL and a Cmax ([2]; 100 mg fed, high-fat breakfast) of 364 ng/mL. For the same compound, the AUC(0-inf) ([2]; 100 mg fed, high-fat breakfast) was 3270 ng·h/mL, the AUC(0-t) ([2]; 100 mg fed, high-fat breakfast) was 3220 ng·h/mL and the Cmax ([2]; 100 mg fed, light breakfast) was 785 ng/mL. The AUC(0-inf) ([2]; 100 mg fed, light breakfast) was 6820 ng·h/mL, the AUC(0-t) ([2]; 100 mg fed, light breakfast) was 6730 ng·h/mL and the “increase in AUC with food” value ([2]; light breakfast vs fasted) was 25%. For the same compound, the “increase in Cmax with food” value ([2]; light breakfast vs fasted) was 35%, the “solubility in feed solvent” value ([3]; ethanol, methanol, acetone, and dichloromethane (DCM)) was “excellent solubility” and the “chemical stability in feed solution” value ([3]; ethanolic feed solution) was “good chemical stability”. For the same compound, the anti-HCV activity [4] was “potent anti-HCV activity”.
